Results taken from US12686704B2, “Procoagulant peptides and use thereof” (RAMBAM MED-TECH LTD., priority 2021, dated 2026).

Legend:
[1] = tested on: citrated pooled normal human blood; assay: Thromboelastography (TEG) of citrated pooled normal human blood; conditions: for Angle / K / MA (maximal amplitude) / R (time to clot formation) / SP / thrombus strength (maximal amplitude, MA), in words / time to clot formation (R), in words: 5 μg/ml with calcium; for Angle / K / MA (maximal amplitude) / R (time to clot formation) / SP: blood left 4 hours at room temperature, representative TEG curve FIG. 1B; for thrombus strength (maximal amplitude, MA), in words / time to clot formation (R), in words: vs control
Procedure: FIGS. 1A-1C include vertical bar graphs and thromboelastography (TEG) curves, showing that peptide 16 and peptide 16AC increase coagulation. Peptide 16 and 16AC were studied in an assay of purified proteins that included lipidated TF (4 nM), factor VIIa (40 nM), factor X (1.4 μM) and assay buffer. Factor X activated form (Xa) level was studied using a chromogenic substrate (1 mM). […] Bovine factor Xa diluted in the assay buffer was used to generate a standard curve. Without addition of TF (two right columns), no factor Xa was generated. […] (1B) A citrated pooled normal human blood sample (n=3) was left for 4 hours at room temperature in order to expose TF in bloods cells. Following this period, the peptides 16 and 16AC were added (5 μg/ml) along with calcium. […] Representative TEG curves are shown. (1C) The study presented in FIG. 1B was repeated 3 times with different pooled plasma. […] Peptide 16 (non-modified); peptide 16 comprising a C-terminal amid group (16A); peptide 16 comprising an N-terminal acetyl group (16C); and peptide 16 comprising a C-terminal amid group and an N-terminal acetyl group (16AC). In 1B: for control—SP min=11.2; R min=12.8; K min=3.8, Angle deg=52.0; and MA mm=47.9, for Peptide 16—SP min=5.2; R min=6.4; K min=2.8, Angle deg=63.3; and MA mm=50.4, and for Peptide 16AC—SP min=4.7; R min=5.6; K min=2.5, Angle deg=63.1; and MA mm=53.8.
A citrated pooled normal human blood sample (n=3) was left for 4 hours at room temperature in order to expose TF in bloods cells. Following this period, the peptides 16 and 16AC were added (5 μg/ml) along with calcium. […] Representative images are shown (FIG. 1B). The study from B section was repeated 3 times with different pooled blood.

[2] = tested on: HEK-293 cells with full length TF (TF) or truncated TF; assay: p-p38 signaling in TF-transfected HEK-293 cells (western blot); format: cell-based; conditions: 2 hours; cells with truncated TF devoid of the intracellular part
Procedure: FIG. 12 includes a vertical bar graph and a micrograph of a western blot analysis. Procoagulant peptide 16AC was added for 2 hours to transfected HEK-293 cells with full length TF (TF) or truncated TF devoid of the intracellular part (ΔTF). […] Control—vector only (Vo); transfection with the empty plasmid, with no additional DNA.
Additionally, the inventor explored binding interaction between the procoagulant peptide of the invention and TF. Briefly, the procoagulant peptide 16AC was added for 2 hours to transfected HEK-293 cells with full length TF (TF) or truncated TF devoid of the intracellular part (ATF).

HUVEC cells = assay: HUVEC migration, scratch (artificial gap) assay; format: cell-based, human; conditions: 10 μg/ml; 4 hours; compared to the control and the non-modified peptide 16
Procedure: FIG. 11 includes micrographs showing that procoagulant peptides increase endothelial cells migration. HUVEC cells were seeded in 35 mm dishes. At confluence of 90%, artificial gap was created using 1,000-μl standard pipette tip. Plate was washed twice with PBS to remove cell debris and incubated with either peptide 16 or 16AC (10 μg/ml). Representative photos of the scratched area after 4 hours are presented. Images were visualized through ×50 magnitude, with 0.82 MDC objective lens, captured with a Nikon E995 digital camera (Nikon, Tokyo, Japan), and processed with Adobe Photoshop software (Adobe Systems, San Jose, CA, USA).
Briefly, HUVEC cells were seeded in 35 mm dishes. At confluence of 90%, artificial gap was created using 1,000 μl standard pipette tip. Plate was washed twice with PBS to remove cell debris and incubated with either peptide 16 or 16AC (10 μg/ml).

GSKRRKLRVYLHCT [Peptide 16, peptide comprising the procoagulant domain of heparanase, non-modified]
Angle [1]: 63.3 deg | K [1]: 2.8 min | MA (maximal amplitude) [1]: 50.4 mm | R (time to clot formation) [1]: 6.4 min | SP [1]: 5.2 min | thrombus strength (maximal amplitude, MA), in words [1]: increased thrombus strength | time to clot formation (R), in words [1]: significantly reduced the time to clot formation (R)

acetyl-GSKRRKLRVYLHCT-amid (Ac-GSKRRKLRVYLHCT-NH2) [Peptide 16AC, peptide 16 comprising a C-terminal amid group and an N-terminal acetyl group]
increase in p-p38 intracellular signaling [2]: not observed | Angle [1]: 63.1 deg | K [1]: 2.5 min | MA (maximal amplitude) [1]: 53.8 mm | R (time to clot formation) [1]: 5.6 min | SP [1]: 4.7 min | thrombus strength (maximal amplitude, MA), in words [1]: increased thrombus strength | time to clot formation (R), in words [1]: significantly reduced the time to clot formation (R) | clot formation compared to peptide 16 ([1]; 5 μg/ml, repeated 3 times with different pooled blood, FIG. 1C): significant better effect to increase clot formation compared to peptide 16 | migrating HUVEC cells (HUVEC cells): substantial increase in migrating HUVEC cells
